Experimental data from the supplement of paper PMC11208160.

test: recombinant barcode read abundance after kanamycin selection (control-corrected) (log10(CPM+1)); higher = more efficient recombination; sequences stand for … in AGTGCAGAGAAAATCGGCCAGTTTTCTCTGCCTGCAGTCCGCATGCCGT…AGATTTATGCAGCGGACTGCCTTTCTCCCAAAGTGATAAACCGGACAGTATCATGGACCGGTTTTCCCGGTAATCCGTATTTGCAAGGTTGGTTTCACT; site = the 11-nt target
Summary of the method: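 Recombination efficiency comes from barcode counts at recombinant junctions, converted to counts per million, averaged and corrected against the control. Values appear as log10(CPM+1). They were obtained from a pooled E. coli screen in which each oligo paired a target with an IS621 bridge RNA target-binding loop, and cells were plated in duplicate on chloramphenicol/ampicillin LB agar or on chloramphenicol/ampicillin/kanamycin with 0.1 mM IPTG.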
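Further: IS621 recombinase and bridge RNA in Escherichia coli cells.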

Going from “TAACCTCCTTGGGTTCTAACCTGTTGCCT (site TAACCTCCTAG)” to “TAACCTCCTTGGGTTCTAACCTGTTGCCT (site TAACCTGCTAG)”, the “recombinant barcode read abundance (log10)” value falls from 0.444 to 0.0867.

“TAACCTCCTTGGGTTCTAACCTGTTGCCT (site TAACCTTCTAG)” and “TAACGACCTTGGGTTCTAACCTGTTGCCT (site AAACGACCTAG)” are within 0.2 log units of each other in “recombinant barcode read abundance (log10)” value: 0.127 for the first, 0 for the second.

“TAACGACCTTGGGTTCTAACCTGTTGCCT (site CAACGACCTAG)” and “TAACGACCTTGGGTTCTAACCTGTTGCCT (site GAACGACCTAG)” are within 0.2 log units of each other in “recombinant barcode read abundance (log10)” value: 0.055 for the first, 0.0956 for the second.

First: TAACGACCTTGGGTTCTAACCTGTTGCCT (site TAACGACCTAG)
Second: TAACGGCCTTGGGTTCTAACCTGTTGCCT (site TAACGGCCTAG)
The “recombinant barcode read abundance (log10)” value of the first is higher: 1.42 for the first, 0.539 for the second.

Compared with “TAACGGCCTTGGGTTCTAACCTGTTGCCT (site TACCGGCCTAG)”, “TAACGGCCTTGGGTTCTAACCTGTTGCCT (site TAGCGGCCTAG)” is lower in “recombinant barcode read abundance (log10)” value: 0.504 for the first, 0.198 for the second.

“TAACGGCCTTGGGTTCTAACCTGTTGCCT (site TATCGGCCTAG)” and “TAACGTCCTTGGGTTCTAACCTGTTGCGT (site TAACGTACTCC)” are within 0.2 log units of each other in “recombinant barcode read abundance (log10)” value: 0.0776 for the first, 0.0665 for the second.

Going from “TAACGTCCTTGGGTTCTAACCTGTTGCGT (site TAACGTCCTAC)” to “TAACGTTCTTGGGTTCTAACCTGTTGCCT (site TAACGTTCTAG)”, the “recombinant barcode read abundance (log10)” value falls from 1.4 to 0.385.

First: TAACGTTCTTGGGTTCTAACCTGTTGCCT (site TACCGTTCTAG)
Second: TAAGATCCTTGGGTTCTAACCTGTTGCCT (site TAAGATCCTAG)
The “recombinant barcode read abundance (log10)” value of the first is lower: 0.0273 for the first, 1.63 for the second.

“TAAGATCCTTGGGTTCTAACCTGTTGCCT (site TAGGCTCCTAG)” and “TAAGCTACTTGGGTTCTAACCTGTTGCTG (site TAAGCCTCTCA)” are within 0.2 log units of each other in “recombinant barcode read abundance (log10)” value: 0.0611 for the first, 0.0237 for the second.

First: TAAGCTACTTGGGTTCTAACCTGTTGCTG (site TAAGCTACTCA)
Second: TACAATTCTTGGGTTCTAACCTGTTGCAT (site GGGCTCCCTCG)
The “recombinant barcode read abundance (log10)” value of the first is higher: 0.885 for the first, 0.0564 for the second.

Compared with “TACAATTCTTGGGTTCTAACCTGTTGCAT (site TACAATTCTAT)”, “TACAGCCCTTGGGTTCTAACCTGTTGCCT (site TACAGCCCTAG)” is higher in “recombinant barcode read abundance (log10)” value: 0.03 for the first, 0.932 for the second.

“TACAGCCCTTGGGTTCTAACCTGTTGCCT (site TTCAGCCCTAG)” and “TACAGTACTTGGGTTCTAACCTGTTGCCT (site AACAGTACTAG)” are within 0.2 log units of each other in “recombinant barcode read abundance (log10)” value: 0.183 for the first, 0.0317 for the second.

“TACAGTACTTGGGTTCTAACCTGTTGCCT (site CACAGTACTAG)” and “TACAGTACTTGGGTTCTAACCTGTTGCCT (site GACAGTACTAG)” are within 0.2 log units of each other in “recombinant barcode read abundance (log10)” value: 0.326 for the first, 0.325 for the second.

“TACAGTACTTGGGTTCTAACCTGTTGCCT (site TACAGTACTAG)” and “TACATCCCTTGGGTTCTAACCTGTTGCCG (site TACATCCCTAG)” are within 0.2 log units of each other in “recombinant barcode read abundance (log10)” value: 0.291 for the first, 0.0934 for the second.

First: TACATCCCTTGGGTTCTAACCTGTTGCCG (site TACATCCCTCG)
Second: TACATCCCTTGGGTTCTAACCTGTTGCCG (site TACATCCCTGG)
The “recombinant barcode read abundance (log10)” value of the first is higher: 0.623 for the first, 0.0502 for the second.

Going from “TACATCCCTTGGGTTCTAACCTGTTGCCG (site TACATCCCTTG)” to “TACCAGACTTGGGTTCTAACCTGTTGCCT (site TACCAGACTAG)”, the “recombinant barcode read abundance (log10)” value rises from 0.0738 to 1.26.

“TACCAGACTTGGGTTCTAACCTGTTGCCT (site TACCCGACTAG)” and “TACCAGACTTGGGTTCTAACCTGTTGCCT (site TACCGGACTAG)” are within 0.2 log units of each other in “recombinant barcode read abundance (log10)” value: 0.033 for the first, 0.191 for the second.

“TACCAGACTTGGGTTCTAACCTGTTGCCT (site TACCTGACTAG)” and “TACCCTTCTTGGGTTCTAACCTGTTGCGT (site CCTAAGCCTCA)” are within 0.2 log units of each other in “recombinant barcode read abundance (log10)” value: 0.0512 for the first, 0.0691 for the second.

Going from “TACCCTTCTTGGGTTCTAACCTGTTGCGT (site TACCCTTCTAC)” to “TACCGGACTTGGGTTCTAACCTGTTGCCT (site TACCAGACTAG)”, the “recombinant barcode read abundance (log10)” value falls from 1.84 to 0.252.

Going from “TACCGGACTTGGGTTCTAACCTGTTGCCT (site TACCCGACTAG)” to “TACCGGACTTGGGTTCTAACCTGTTGCCT (site TACCGGACTAG)”, the “recombinant barcode read abundance (log10)” value rises from 0.139 to 1.56.

“TACCGGACTTGGGTTCTAACCTGTTGCCT (site TACCTGACTAG)” and “TACCGGTCTTGGGTTCTAACCTGTTGCTT (site TACCAGTCTAA)” are within 0.2 log units of each other in “recombinant barcode read abundance (log10)” value: 0.0144 for the first, 0.18 for the second.

Compared with “TACCGGTCTTGGGTTCTAACCTGTTGCTT (site TACCCGTCTAA)”, “TACCGGTCTTGGGTTCTAACCTGTTGCTT (site TACCGGTCTAA)” is higher in “recombinant barcode read abundance (log10)” value: 0.13 for the first, 1.46 for the second.

First: TACCGGTCTTGGGTTCTAACCTGTTGCTT (site TACCTGTCTAA)
Second: TACCTAACTTGGGTTCTAACCTGTTGCTT (site GGTTCCTCTCC)
The “recombinant barcode read abundance (log10)” value of the first is lower: 0.00501 for the first, 0.206 for the second.

“TACCTAACTTGGGTTCTAACCTGTTGCTT (site TACCTAACTAA)” and “TACCTGCCTTGGGTTCTAACCTGTTGCGT (site GCCCTGCCTAC)” are within 0.2 log units of each other in “recombinant barcode read abundance (log10)” value: 0.0655 for the first, 0.0159 for the second.

First: TACCTGCCTTGGGTTCTAACCTGTTGCGT (site TACCTGCCTAC)
Second: TACCTGTCTTGGGTTCTAACCTGTTGCTT (site TACCAGTCTAA)
The “recombinant barcode read abundance (log10)” value of the first is higher: 1.27 for the first, 0.139 for the second.

First: TACCTGTCTTGGGTTCTAACCTGTTGCTT (site TACCCGTCTAA)
Second: TACCTGTCTTGGGTTCTAACCTGTTGCTT (site TACCGGTCTAA)
The “recombinant barcode read abundance (log10)” value of the first is lower: 0.251 for the first, 0.543 for the second.

First: TACCTGTCTTGGGTTCTAACCTGTTGCTT (site TACCTGTCTAA)
Second: TACGACGCTTGGGTTCTAACCTGTTGCCT (site TAAGACGCTAG)
The “recombinant barcode read abundance (log10)” value of the first is higher: 1.77 for the first, 0.0663 for the second.

Compared with “TACGACGCTTGGGTTCTAACCTGTTGCCT (site TACGACGCTAG)”, “TACGACGCTTGGGTTCTAACCTGTTGCCT (site TAGGACGCTAG)” is lower in “recombinant barcode read abundance (log10)” value: 0.756 for the first, 0.0186 for the second.

“TACGACGCTTGGGTTCTAACCTGTTGCCT (site TATGACGCTAG)” and “TACGATACTTGGGTTCTAACCTGTTGCGT (site CTACGACCTCT)” are within 0.2 log units of each other in “recombinant barcode read abundance (log10)” value: 0.128 for the first, 0.0489 for the second.

For “TACGATACTTGGGTTCTAACCTGTTGCGT (site TACGATACTAC)”, the “recombinant barcode read abundance (log10)” value was 1.19.
